# Experimental data from US9668960B2, “Methods useful in studying or modulating skin or hair pigmentation, plant extracts for use in compositions and cosmetic care method” (L V M H RECHERCHE, priority 2008, dated 2017).
# Tested on: Myo-X
# Experiment: Myo-X expression by double immunolabelling in normal human melanocytes
# Type: cell-based
# Experimental: Immunofluorescence staining: For EM:KC co-culture studies fully matched melanocytes (p4) and keratinocytes (p2) were seeded onto 8-well Lab-Tek® chamber slides at a cell density of 1×10^4 cells/well and in a ratio of 1 melanocyte to 10 keratinocytes. Co-cultures were maintained overnight (16 h) in a mixture of full K-SFM and MEM (co-culture medium) to allow cell attachment, followed by medium replenishment for a further 24 h. Cells were then fixed in ice-cold methanol for 10 min at −20° C., washed in PBS and then blocked with 10% donkey serum for the detection of protein expression in filopodia.
# For double labelling experiments the first primary antibody, Myo-X (1:100) (Santa Cruz, Calif., USA) was applied overnight at 4° C., followed by incubation with FITC-conjugated secondary antibody (1:100) for 1 h at room temperature. The second primary antibody, either cytokeratin (1:100) (Abeam, Cambridge, UK) or β-Actin (1:100) (Santa Cruz, USA) or Fascin (1:100) (Santa Cruz, USA) or NKi/beteb (1:30) (Monosan) was applied for 1 h at room temperature followed by a TRITC-conjugated secondary antibody (1:100) (Jackson Immunoresearch Laboratories, Inc., West Grove, USA). DAPI (Vector Laboratories, Burlingame, Calif.) was used to stain nuclei. Images were captured with a cooled Hamamatsu digital camera using a 100× objective and post-processed using Paint Shop Pro (Jasc Software Ver. 7. CA, USA). Negative controls included the omission of primary antibody and replacement with non-immune serum from secondary antibody host and inclusion of secondary antibodies.
# Myo-X was also detected in EM filopodia.
compound,measurement,setting,value
CC(C)Cn1c(=O)n(C)c(=O)c2[nH]cnc21 [IBMX],"Myo-X expression in EM (immunolabelling, words)",compared with untreated cells,increased the expression of Myo-X
same,Myo-X localization in EM filopodia,compared with untreated cells,enhanced Myo-X localization in EM filopodia
same,overall number of filopodia,total number of yellow spots beyond EM dendritic tips,increased
